Test results: ChEMBL document CHEMBL1140860, “Synthesis and evaluation of dihydroartemisinin and dihydroartemisitene acetal dimers showing anticancer and antiprotozoal activity” (Bioorg Med Chem, 2009)

How the values were obtained:
HL-60 = test: Growth inhibition of human HL-60(TB) cells after 48 hrs by sulforhodamine B assay; format: functional; settings: HL-60, 48 h
SN12C = test: Growth inhibition of human SN12C cells after 48 hrs by sulforhodamine B assay; format: functional
SK-MEL-2 = test: Growth inhibition of human SK-MEL-2 cells after 48 hrs by sulforhodamine B assay; format: functional; settings: SK-MEL-2, 48 h
EKVX = test: Growth inhibition of human EKVX cells after 48 hrs by sulforhodamine B assay; format: functional
OVCAR-4 = test: Growth inhibition of human OVCAR4 cells after 48 hrs by sulforhodamine B assay; format: functional; settings: OVCAR-4, 48 h
[1] = Growth inhibition of human […] cells after 48 hrs by sulforhodamine B assay; format: functional
RXF 393 = test: Growth inhibition of human RXF393 cells after 48 hrs by sulforhodamine B assay; format: functional; settings: RXF 393, 48 h
UACC-62 = test: Growth inhibition of human UACC62 cells after 48 hrs by sulforhodamine B assay; format: functional; settings: UACC-62, 48 h
SF-295 = test: Growth inhibition of human SF295 cells after 48 hrs by sulforhodamine B assay; format: functional; settings: SF-295, 48 h
SNB-75 = test: Growth inhibition of human SNB75 cells after 48 hrs by sulforhodamine B assay; format: functional; settings: SNB-75, 48 h
SW-620 = test: Growth inhibition of human SW620 cells after 48 hrs by sulforhodamine B assay; format: functional; settings: SW-620, 48 h
NCI-H226 = test: Growth inhibition of human NCI-H226 cells after 48 hrs by sulforhodamine B assay; format: functional; settings: NCI-H226, 48 h
HOP-62 = test: Growth inhibition of human HOP62 cells after 48 hrs by sulforhodamine B assay; format: functional; settings: HOP-62, 48 h
IGROV-1 = test: Growth inhibition of human IGROV1 cells after 48 hrs by sulforhodamine B assay; format: functional; settings: IGROV-1, 48 h
PC-3 = test: Growth inhibition of human PC3 cells after 48 hrs by sulforhodamine B assay; format: functional; settings: PC-3, 48 h
NCI-H322M = test: Growth inhibition of human NCI-H322M cells after 48 hrs by sulforhodamine B assay; format: functional
KM12 = test: Growth inhibition of human KM12 cells after 48 hrs by sulforhodamine B assay; format: functional; settings: KM12, 48 h
MDA-N = test: Growth inhibition of human MDA-N cells after 48 hrs by sulforhodamine B assay; format: functional
TK-10 = test: Growth inhibition of human TK10 cells after 48 hrs by sulforhodamine B assay; format: functional; settings: TK-10, 48 h
NCI-H522 = test: Growth inhibition of human NCI-H522 cells after 48 hrs by sulforhodamine B assay; format: functional; settings: NCI-H522, 48 h
HCT-15 = test: Growth inhibition of human HCT15 cells after 48 hrs by sulforhodamine B assay; format: functional; settings: HCT-15, 48 h
M14 = test: Growth inhibition of human M14 cells after 48 hrs by sulforhodamine B assay; format: functional; settings: M14, 48 h
NCI-H23 = test: Growth inhibition of human NCI-H23 cells after 48 hrs by sulforhodamine B assay; format: functional; settings: NCI-H23, 48 h
OVCAR-8 = test: Growth inhibition of human OVCAR8 cells after 48 hrs by sulforhodamine B assay; format: functional; settings: OVCAR-8, 48 h
HOP-92 = test: Growth inhibition of human HOP92 cells after 48 hrs by sulforhodamine B assay; format: functional; settings: HOP-92, 48 h
SR = test: Growth inhibition of human SR cells after 48 hrs by sulforhodamine B assay; format: functional
MCF7 = test: Growth inhibition of human MCF7 cells after 48 hrs by sulforhodamine B assay; format: functional; settings: MCF7, 48 h
UO-31 = test: Growth inhibition of human UO31 cells after 48 hrs by sulforhodamine B assay; format: functional; settings: UO-31, 48 h
OVCAR-5 = test: Growth inhibition of human OVCAR5 cells after 48 hrs by sulforhodamine B assay; format: functional; settings: OVCAR-5, 48 h
SK-OV-3 = test: Growth inhibition of human SKOV3 cells after 48 hrs by sulforhodamine B assay; format: functional; settings: SK-OV-3, 48 h
UACC-257 = test: Growth inhibition of human UACC257 cells after 48 hrs by sulforhodamine B assay; format: functional; settings: UACC-257, 48 h
[2] = Selectivity index, ratio of TC50 for african green monkey (Cercopithecus aethiops) Vero cells to IC50 for chloroquine-resistant Plasmodium falciparum W2; format: toxicity, cell-based
HCT-116 = test: Growth inhibition of human HCT116 cells after 48 hrs by sulforhodamine B assay; format: functional; settings: HCT-116, 48 h
Plasmodium falciparum [3] = test: Antimalarial activity after 72 hrs against chloroquine-resistant Plasmodium falciparum W2 infected erythrocytes by LDH assay; format: functional, organism-based; settings: W2, 72 h
A549 = test: Growth inhibition of human A549 cells after 48 hrs by sulforhodamine B assay; format: functional; settings: A549, 48 h
COLO 205 = test: Growth inhibition of human COLO205 cells after 48 hrs by sulforhodamine B assay; format: functional; settings: COLO 205, 48 h
[4] = Growth inhibition of human Hs 578T cells after 48 hrs by sulforhodamine B assay; format: functional
CAKI-1 = test: Growth inhibition of human Caki1 cells after 48 hrs by sulforhodamine B assay; format: functional; settings: CAKI-1, 48 h
NCI-H460 = test: Growth inhibition of human NCI-H460 cells after 48 hrs by sulforhodamine B assay; format: functional; settings: NCI-H460, 48 h
LOX IMVI = test: Growth inhibition of human LOXIMVI cells after 48 hrs by sulforhodamine B assay; format: functional
U-251 = test: Growth inhibition of human U251 cells after 48 hrs by sulforhodamine B assay; format: functional; settings: U-251, 48 h
CCRF-CEM = test: Growth inhibition of human CCRF-CEM cells after 48 hrs by sulforhodamine B assay; format: functional
SK-MEL-28 = test: Growth inhibition of human SK-MEL-28 cells after 48 hrs by sulforhodamine B assay; format: functional; settings: SK-MEL-28, 48 h
DU-145 = test: Growth inhibition of human DU145 cells after 48 hrs by sulforhodamine B assay; format: functional; settings: DU-145, 48 h
BT-549 = test: Growth inhibition of human BT549 cells after 48 hrs by sulforhodamine B assay; format: functional; settings: BT-549, 48 h
SK-MEL-5 = test: Growth inhibition of human SK-MEL-5 cells after 48 hrs by sulforhodamine B assay; format: functional; settings: SK-MEL-5, 48 h
786-0 = test: Growth inhibition of human 786-0 cells after 48 hrs by sulforhodamine B assay; format: functional; settings: 786-0, 48 h
Malme-3M = test: Growth inhibition of human MALME-3M cells after 48 hrs by sulforhodamine B assay; format: functional
Plasmodium falciparum [5] = test: Antimalarial activity after 72 hrs against chloroquine-sensitive Plasmodium falciparum D6 infected in erythrocytes by LDH assay; format: functional, organism-based; settings: D6, 72 h
SF-268 = test: Growth inhibition of human SF268 cells after 48 hrs by sulforhodamine B assay; format: functional; settings: SF-268, 48 h

C[C@H]1[C@@H](O[C@H]2CC[C@H](O[C@H]3O[C@@H]4O[C@@]5(C)CC[C@H]6[C@H](C)CC[C@@H]([C@H]3C)[C@@]46OO5)CC2)O[C@@H]2O[C@@]3(C)CC[C@H]4[C@H](C)CC[C@@H]1[C@@]24OO3
GI50 (HL-60): 32 nM | GI50 (SN12C): 97 nM | GI50 (SK-MEL-2): 296 nM | GI50 (EKVX): 28 nM | GI50 (OVCAR-4): 53 nM | GI50 [1]: < 10 nM | GI50 (RXF 393): 294 nM | GI50 (UACC-62): 45 nM | GI50 (SF-295): 61 nM | GI50 (SNB-75): 202 nM | GI50 (SW-620): 24 nM | GI50 (NCI-H226): 25 nM | GI50 (HOP-62): 65 nM | GI50 (IGROV-1): 55 nM | GI50 (PC-3): < 10 nM | GI50 (NCI-H322M): 672 nM | GI50 (KM12): 11 nM | GI50 (MDA-N): 77 nM | GI50 (TK-10): 119 nM | GI50 (NCI-H522): 36 nM | GI50 (HCT-15): < 10 nM | GI50 (M14): 61 nM | GI50 (NCI-H23): 43 nM | GI50 (OVCAR-8): 57 nM | GI50 (HOP-92): 21 nM | GI50 (SR): 306 nM | GI50 (MCF7): 42 nM | GI50 (UO-31): 123 nM | GI50 (OVCAR-5): 42 nM | GI50 (SK-OV-3): 166 nM | GI50 (UACC-257): 74 nM | selectivity ratio [2]: > 553 | GI50 (HCT-116): < 10 nM | IC50 (Plasmodium falciparum [3]): 13300 nM | GI50 (A549): 18.8 nM | GI50 (COLO 205): < 10 nM | GI50 [4]: 63 nM | GI50 (CAKI-1): 326 nM | GI50 (NCI-H460): 28 nM | GI50 (LOX IMVI): 13 nM | GI50 (U-251): 16 nM | GI50 (CCRF-CEM): < 10 nM | GI50 (SK-MEL-28): 98800 nM | GI50 (DU-145): 340 nM | GI50 (BT-549): 21 nM | GI50 (SK-MEL-5): 49 nM | GI50 (786-0): 27 nM | GI50 (Malme-3M): 71 nM | IC50 (Plasmodium falciparum [5]): 5400 nM | GI50 (SF-268): 108 nM

C[C@H]1[C@H](OCCO[C@H]2O[C@@H]3O[C@@]4(C)CC[C@H]5[C@H](C)CC[C@@H]([C@H]2C)[C@@]35OO4)O[C@@H]2O[C@@]3(C)CC[C@H]4[C@H](C)CC[C@@H]1[C@@]24OO3
GI50 (HL-60): 15 nM | GI50 (SN12C): 55 nM | GI50 (SK-MEL-2): 212 nM | GI50 (EKVX): 40 nM | GI50 (OVCAR-4): 41 nM | GI50 [1]: < 8 nM | GI50 (RXF 393): 54 nM | GI50 (UACC-62): 72 nM | GI50 (SF-295): 1100 nM | GI50 (SNB-75): 366 nM | GI50 (SW-620): 25 nM | GI50 (NCI-H226): 9540 nM | GI50 (HOP-62): 11600 nM | GI50 (IGROV-1): 8280 nM | GI50 (PC-3): 22 nM | GI50 (NCI-H322M): 7900 nM | GI50 (KM12): 33 nM | GI50 (MDA-N): 61 nM | GI50 (TK-10): 64 nM | GI50 (NCI-H522): 680 nM | GI50 (HCT-15): 17 nM | GI50 (M14): 7600 nM | GI50 (NCI-H23): 36 nM | GI50 (OVCAR-8): 34 nM | GI50 (HOP-92): 52 nM | GI50 (SR): 25 nM | GI50 (MCF7): 28 nM | GI50 (UO-31): 35 nM | GI50 (OVCAR-5): 59 nM | GI50 (SK-OV-3): 17900 nM | GI50 (UACC-257): 54 nM | selectivity ratio [2]: > 37 | GI50 (HCT-116): 30 nM | IC50 (Plasmodium falciparum [3]): 21900 nM | GI50 (A549): 59 nM | GI50 (COLO 205): 15 nM | GI50 [4]: 7650 nM | GI50 (CAKI-1): 90 nM | GI50 (NCI-H460): 46 nM | GI50 (LOX IMVI): 30 nM | GI50 (U-251): 49 nM | GI50 (CCRF-CEM): 25 nM | GI50 (SK-MEL-28): 727 nM | GI50 (DU-145): 8190 nM | GI50 (BT-549): 74 nM | GI50 (SK-MEL-5): 34 nM | GI50 (786-0): 324 nM | GI50 (Malme-3M): 235 nM | IC50 (Plasmodium falciparum [5]): 31900 nM | GI50 (SF-268): 7540 nM
